The source of these data is PubChem BioAssay (NCI).

Molecules are shown by their SMILES. “And” between values parts separate entries of the source, which are not always exact repeats. Equal values may be shown once.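 Grown in 96-well plates, cells were treated for 48 hours with each compound at five concentrations. Insufficient inhibition: endpoint recorded as highest concentration tested. GI50: concentration for 50% inhibition of growth. TGI: total growth inhibition.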 Where a SMILES comes first, the peptide text is derived from it. [ ]: non-standard residue; d: D form. The star is where a group is joined. Decanoyl = CCCCCCCCCC(=O)*; Leu(ol) = CC(C)C[C@H](N)CO; Iva = CC[C@](C)(N)C(=O)O; Aib = CC(C)(N)C(=O)O

For this assay, the system named is MDA-MB-468 breast. The assay is described as follows: NCI-60 cell line screen, 48 h.
Regarding `N#Cc1c(-c2ccc(Cl)cc2)csc1NC(=O)Nc1ccc(Cl)c(C(F)(F)F)c1`, the GI50 was 186 nM and the TGI came to 1.51 µM.

For the molecule `C#Cc1ccc(NC(=O)c2ccc(/C=C/C(=O)c3nccn3C)cc2)c(F)c1`, the GI50 is 1240 nM and the TGI is 4.42 µM.

With `NS(=O)(=O)c1ccc(N=Cc2c(O)[nH]c3ccc4ncsc4c23)cc1`, the GI50 is 488 nM and 472 nM; the TGI is 1.14 µM and 1.08 µM.

As to `O=C(/C=C/c1cc2ccccc2[nH]c1=O)c1ccc(Cl)cc1`, the GI50 was 17400 nM and the TGI is 35.2 µM.

On to `CCNCCCn1c2c(c3ccc(F)cc3c1=O)C(=O)c1cc(OC)cnc1-2`, for which the GI50 is 139 nM and the TGI stood at 0.312 µM.

On to `COC(=O)[C@@H](C)C[C@H](Cc1ccccc1)NC(=O)c1cccc([C@@H](C[C@H](C(C)C)N(C)C(=O)[C@@H](NC(=O)[C@H]2CCCCN2C)C2CC2)OC(C)=O)n1`, for which the GI50 was 3.33 nM; the TGI is 33.3 µM and > 100 µM.

With `COc1cccc2c1C(=O)c1c(O)c3c(c(O)c1C2=O)CC(O)(/C(C)=N/NC(=O)CCCCC(=O)N/N=C(\C)C1(O)Cc2c(O)c4c(c(O)c2C(OC2CC(N)C(O)C(C)O2)C1)C(=O)c1c(OC)cccc1C4=O)CC3OC1CC(N)C(O)C(C)O1` (centres undefined), the GI50 was 93.5 nM and the TGI was 0.251 µM.

With `CCOc1ccc(C(=O)Nc2ncc(Cc3ccc(F)cc3)s2)cc1`, the GI50 was 266 nM and the TGI was above 100 µM.

Consider `O=c1c2c([nH]c3ccccc13)CCCC2`, for which the GI50 is 16700 nM and the TGI was above 100 µM.

For the molecule `COc1ccc2c(c1)oc1c(C)c3c(c(C)c12)C(=O)N(N)C3=O`, the GI50 was above 100000 nM and the TGI was above 100 µM.

In the case of `CC1(C)CCC2(CC1)N[C@@H](C(=O)N[C@@H]1CC[C@@H](C(N)=O)OC1)[C@H](c1ccnc(Cl)c1F)[C@]21C(=O)Nc2cc(Cl)ccc21`, the GI50 was 2240 nM and the TGI is 5.63 µM.

For `COc1ccc(-c2c(-c3cc(OC)c(OC)c(OC)c3)nc3sc(C4CC4)nn23)cc1OC`, the GI50 is 1900 nM and the TGI is 31.4 µM.

Regarding `COC1=CC(=O)c2c(ccc3ncnc(N)c23)C1=O`, the GI50 is 1140 nM and the TGI turned out to be 2.77 µM.

For the molecule `O=C(NC(=S)Nc1ccccn1)c1ccccc1`, the GI50 is 12500 nM and the TGI was above 100 µM.

With `C=C1c2c(C)nn(-c3ccc(OC)cc3)c2N(C)C23C[C@@H]1C1(C)c4c(C)nn(-c5ccc(OC)cc5)c4N(C)C(C)(C[C@H]12)C3` (some centres undefined), the GI50 is 2500 nM and the TGI came to 12.8 µM.

As for `O=[N+]([O-])c1ccc(C(Br)c2ccc([N+](=O)[O-])cc2)cc1`, the GI50 was 11500 nM and the TGI was determined as 25.9 µM.

On to `Cc1c([C@H](C(Cl)Cl)[C@H](O)[C@H]2C[C@H](C)C(=O)O2)ccc2c1C(=O)[C@H]1[C@H]2C[C@@H](Br)[C@@]23O[C@@H](CO[C@H]2O)CC13C` (some centres undefined), for which the GI50 was 129 nM and the TGI is 0.922 µM.

For `COc1cc(/C=C/C(=O)c2ccc(Nc3nc(Nc4ccc(F)cc4)nc(Nc4ccc(Cl)cc4)n3)cc2)cc(OC)c1OC`, the GI50 is 1340 nM and the TGI was 3.75 µM.

Consider `COc1cc(/C=C/C(=O)Nc2ccc3c(c2)/C(=C\c2cccn2C)C(=O)N3)cc(OC)c1OC`, for which the GI50 was 3390 nM and the TGI turned out to be 25.2 µM.

Turning to `CCCCCCCCCC(=O)NC(C)(C)C(=O)N1CCC[C@H]1C(=O)N[C@@H](CC(C)C)C(=O)N[C@@](C)(CC)C(=O)N[C@@H](CCC(N)=O)C(=O)N[C@H](CCC(N)=O)C(=O)NC(C)(C)C(=O)NC(C)(C)C(=O)N[C@@H](CCC(N)=O)C(=O)N[C@H](CC(C)C)C(=O)N[C@H](CO)CC(C)C` (Decanoyl-[Aib]PL[Iva]Q[dQ][Aib][Aib]Q[dL][Leu(ol)]), the GI50 was 1790 nM and the TGI was found to be 3.34 µM.

As to `COc1cc(C(=O)c2c(-c3ccccc3)oc3c(OC)cccc23)cc(OC)c1O`, the GI50 was 936 nM and the TGI was determined as 7.22 µM.

In the case of `C=C1C(=O)O[C@H]2[C@H]1CC/C(CNC(=O)c1cccc3ccccc13)=C\CC[C@@]1(C)O[C@@H]21`, the GI50 is 1380 nM and the TGI worked out at 4.24 µM.

`Nc1n[n+](=O)c2ccccc2n1O`: the GI50 is 19600 nM and the TGI was 67 µM.

Regarding `COc1ncc(-c2ccc3nccc(C#CCCCCC(=O)O)c3c2)cc1NS(=O)(=O)c1ccc(F)cc1F`, the GI50 is 132 nM and the TGI is 1.9 µM.

For the molecule `C=C1CC2(OC1=O)C(=O)N(C)c1ccc(I)cc12` (centres undefined), the GI50 was 537 nM and the TGI came out at 2.76 µM.

Consider `CCOC(=O)c1ccc2c(c1)[n+](=O)c(C(=O)C1CCCS1)c(C(F)(F)F)n2[O-]` (centres undefined), for which the GI50 is 250 nM and the TGI was determined as 0.967 µM.

As to `C=CCn1c(SCC(=O)Nc2ccc(C(=O)/C=C/c3cc(OC)c(OC)c(OC)c3)cc2)nnc1-c1ccc(Cl)cc1`, the GI50 is 3470 nM and the TGI was 26.6 µM.

For the molecule `CCCSc1ccc2nc(NC(=O)OC)[nH]c2c1`, the GI50 was 210 nM and the TGI was found to be 0.702 µM.

For the molecule `Brc1ccc(SCN(CSc2ccc(Br)cc2)Cc2ccccc2)cc1`, the GI50 is 6450 nM and the TGI worked out at 30.6 µM.

`O=C(Nc1ccc(-n2cc(-c3ccncc3)c(-c3ccc(O)c(Cl)c3)n2)cc1)c1cc(C(F)(F)F)cc(C(F)(F)F)c1`: the GI50 is 6060 nM and the TGI is above 25 µM.

With `N#C/C(=C\c1cn(Cc2ccccc2)c2ccccc12)C(=O)Nc1ncc(Cc2ccccc2Cl)s1`, the GI50 is 1840 nM and the TGI came out at 4.68 µM.

As for `Oc1ccc(CSc2nnc(-c3ccc(Cl)cc3)n2-c2ccccc2)c2cccnc12`, the GI50 was 1190 nM and the TGI was above 100 µM.

In the case of `Cn1c(=O)n(CCCO)c(=O)c2c1nc(Oc1cccc(OC(F)(F)F)c1)n2Cc1ccc(Cl)cc1`, the GI50 was 12900 nM and the TGI came to 29.9 µM.

For `C[CH2][Sn]([CH2]C)([O]C(=O)c1cccc(OC)c1)[O][Sn]([CH2]C)([CH2]C)[O]C(=O)c1cccc(OC)c1`, the GI50 was 5530 nM and the TGI came out at 20.8 µM.

For the molecule `C1=C/COCc2cc(ccc2OCCN2CCCC2)Nc2nccc(n2)-c2cccc(c2)COC/1`, the GI50 is 396 nM and 562 nM; the TGI was 1.48 µM and 2.01 µM.

As for `O=C(Nc1cccc(-n2ccc3c(NC(=O)c4ccccc4)nccc32)c1)Nc1ccc(Cl)c(C(F)(F)F)c1`, the GI50 was 257 nM and the TGI is 3.36 µM.

Regarding `COc1ccc(-c2nnc(COc3ccc(Cl)cc3Cl)o2)cc1OC`, the GI50 is 7320 nM and the TGI is 54.4 µM.
